# Experimental data reported in PubChem BioAssay AID1259407 (Chemical Carcinogenesis Research Information System (CCRIS), 2018).
# Activity calls are given as the source filed them. The rule behind the calls is not given here.
# Test system: CCRIS mutagenicity, Ames/micronucleus/aberration tests
# Assay: CCRIS mutagenicity studies
# [1] = Test System: AMES SALMONELLA TYPHIMURIUM, Strain/Indicator: TA98, Metabolic Activation: NONE, Method: PREINCUBATION
# [2] = Test System: AMES SALMONELLA TYPHIMURIUM, Strain/Indicator: TA100, Metabolic Activation: NONE, Method: PREINCUBATION
# [3] = Test System: AMES SALMONELLA TYPHIMURIUM, Strain/Indicator: TA1535, Metabolic Activation: NONE, Method: PREINCUBATION
compound,measurement,setting,value
OB(O)O,mutagenic call,"End Point: In vitro chromosomal aberrations, Test System: Human peripheral lymphocytes, Metabolic Activation: None",active; positive (structural changes)
same,mutagenic call,"End Point: In vitro micronucleus, Test System: Human peripheral blood lymphocytes, Metabolic Activation: None",inactive; negative
same,mutagenic call,"Test System: AMES SALMONELLA TYPHIMURIUM, Strain/Indicator: TA98, Metabolic Activation: HAMSTER, LIVER, S-9, AROCLOR 1254, Method: PREINCUBATION",inactive; negative
same,mutagenic call,[1],inactive; negative
same,mutagenic call,"Test System: AMES SALMONELLA TYPHIMURIUM, Strain/Indicator: TA98, Metabolic Activation: NONE, Method: STANDARD PLATE",inactive; negative
same,mutagenic call,"Test System: AMES SALMONELLA TYPHIMURIUM, Strain/Indicator: TA98, Metabolic Activation: RAT LIVER S-9, PHENOBARBITAL AND BETA-NAPHTHOFLAVONE, Method: PREINCUBATION",inactive; negative
same,mutagenic call,"Test System: AMES SALMONELLA TYPHIMURIUM, Strain/Indicator: TA98, Metabolic Activation: RAT, LIVER, S-9, AROCLOR 1254, Method: PREINCUBATION",inactive; negative
same,mutagenic call,"Test System: AMES SALMONELLA TYPHIMURIUM, Strain/Indicator: TA98, Metabolic Activation: RAT, LIVER, S-9, BETA-NAPHTHOFLAVONE AND PHENOBARBITAL, Method: STANDARD PLATE",inactive; negative
same,mutagenic call,"Test System: AMES SALMONELLA TYPHIMURIUM, Strain/Indicator: TA100, Metabolic Activation: HAMSTER, LIVER, S-9, AROCLOR 1254, Method: PREINCUBATION",inactive; negative
same,mutagenic call,[2],inactive; negative
same,mutagenic call,"Test System: AMES SALMONELLA TYPHIMURIUM, Strain/Indicator: TA100, Metabolic Activation: RAT LIVER S-9, PHENOBARBITAL AND BETA-NAPHTHOFLAVONE, Method: PREINCUBATION",inactive; negative
same,mutagenic call,"Test System: AMES SALMONELLA TYPHIMURIUM, Strain/Indicator: TA100, Metabolic Activation: RAT, LIVER, S-9, AROCLOR 1254, Method: PREINCUBATION",inactive; negative
same,mutagenic call,"Test System: AMES SALMONELLA TYPHIMURIUM, Strain/Indicator: TA100, Metabolic Activation: RAT, LIVER, S-9, BETA-NAPHTHOFLAVONE AND PHENOBARBITAL, Method: STANDARD PLATE",inactive; negative
same,mutagenic call,"Test System: AMES SALMONELLA TYPHIMURIUM, Strain/Indicator: TA102, Metabolic Activation: NONE, Method: STANDARD PLATE",inactive; negative
same,mutagenic call,"Test System: AMES SALMONELLA TYPHIMURIUM, Strain/Indicator: TA102, Metabolic Activation: RAT, LIVER, S-9, BETA-NAPHTHOFLAVONE AND PHENOBARBITAL, Method: STANDARD PLATE",inactive; negative
same,mutagenic call,"Test System: AMES SALMONELLA TYPHIMURIUM, Strain/Indicator: TA1535, Metabolic Activation: HAMSTER, LIVER, S-9, AROCLOR 1254, Method: PREINCUBATION",inactive; negative
same,mutagenic call,[3],inactive; negative
same,mutagenic call,"Test System: AMES SALMONELLA TYPHIMURIUM, Strain/Indicator: TA1535, Metabolic Activation: RAT LIVER S-9, PHENOBARBITAL AND BETA-NAPHTHOFLAVONE, Method: PREINCUBATION",inactive; negative
same,mutagenic call,"Test System: AMES SALMONELLA TYPHIMURIUM, Strain/Indicator: TA1535, Metabolic Activation: RAT, LIVER, S-9, AROCLOR 1254, Method: PREINCUBATION",inactive; negative
same,mutagenic call,"Test System: AMES SALMONELLA TYPHIMURIUM, Strain/Indicator: TA1537, Metabolic Activation: HAMSTER, LIVER, S-9, AROCLOR 1254, Method: PREINCUBATION",inactive; negative
same,mutagenic call,"Test System: AMES SALMONELLA TYPHIMURIUM, Strain/Indicator: TA1537, Metabolic Activation: NONE, Method: PREINCUBATION",inactive; negative
same,mutagenic call,"Test System: AMES SALMONELLA TYPHIMURIUM, Strain/Indicator: TA1537, Metabolic Activation: RAT LIVER S-9, PHENOBARBITAL AND BETA-NAPHTHOFLAVONE, Method: PREINCUBATION",inactive; negative
same,mutagenic call,"Test System: AMES SALMONELLA TYPHIMURIUM, Strain/Indicator: TA1537, Metabolic Activation: RAT, LIVER, S-9, AROCLOR 1254, Method: PREINCUBATION",inactive; negative
same,mutagenic call,"Test System: AMES SALMONELLA TYPHIMURIUM, Strain/Indicator: TA1538, Metabolic Activation: NONE, Method: PREINCUBATION",inactive; negative
same,mutagenic call,"Test System: AMES SALMONELLA TYPHIMURIUM, Strain/Indicator: TA1538, Metabolic Activation: RAT LIVER S-9, PHENOBARBITAL AND BETA-NAPHTHOFLAVONE, Method: PREINCUBATION",inactive; negative
same,mutagenic call,"Test System: E.COLI, Strain/Indicator: WP2UVRA, Metabolic Activation: NONE, Method: PREINCUBATION",inactive; negative
same,mutagenic call,"Test System: E.COLI, Strain/Indicator: WP2UVRA, Metabolic Activation: RAT LIVER S-9, PHENOBARBITAL AND BETA-NAPHTHOFLAVONE, Method: PREINCUBATION",inactive; negative
same,mutagenic call,"Test System: MOUSE LYMPHOMA, Strain/Indicator: L5178Y (TK+/TK-), Metabolic Activation: NONE, Method: SUSPENSION/PLATE",inactive; negative
same,mutagenic call,"Test System: MOUSE LYMPHOMA, Strain/Indicator: L5178Y (TK+/TK-), Metabolic Activation: RAT, LIVER, S-9, AROCLOR 1254, Method: SUSPENSION/PLATE",inactive; negative
CCOP(=S)(OCC)OP(=S)(OCC)OCC,mutagenic call,"Test System: AMES SALMONELLA TYPHIMURIUM, Strain/Indicator: TA97, Metabolic Activation: HAMSTER, LIVER, S-9, AROCLOR 1254 (10%), Method: PREINCUBATION",inactive; negative
same,mutagenic call,"Test System: AMES SALMONELLA TYPHIMURIUM, Strain/Indicator: TA97, Metabolic Activation: NONE, Method: PREINCUBATION",inactive; negative
same,mutagenic call,"Test System: AMES SALMONELLA TYPHIMURIUM, Strain/Indicator: TA97, Metabolic Activation: RAT, LIVER, S-9, AROCLOR 1254 (10%), Method: PREINCUBATION",inactive; negative
same,mutagenic call,"Test System: AMES SALMONELLA TYPHIMURIUM, Strain/Indicator: TA98, Metabolic Activation: HAMSTER, LIVER, S-9, AROCLOR 1254 (10%), Method: PREINCUBATION",inactive; negative
same,mutagenic call,[1],inactive; negative
same,mutagenic call,"Test System: AMES SALMONELLA TYPHIMURIUM, Strain/Indicator: TA98, Metabolic Activation: RAT, LIVER, S-9, AROCLOR 1254 (10%), Method: PREINCUBATION",inactive; negative
same,mutagenic call,"Test System: AMES SALMONELLA TYPHIMURIUM, Strain/Indicator: TA100, Metabolic Activation: HAMSTER, LIVER, S-9, AROCLOR 1254 (10%), Method: PREINCUBATION",inactive; negative
same,mutagenic call,[2],inactive; negative
same,mutagenic call,"Test System: AMES SALMONELLA TYPHIMURIUM, Strain/Indicator: TA100, Metabolic Activation: RAT, LIVER, S-9, AROCLOR 1254 (10%), Method: PREINCUBATION",inactive; negative
same,mutagenic call,"Test System: AMES SALMONELLA TYPHIMURIUM, Strain/Indicator: TA1535, Metabolic Activation: HAMSTER, LIVER, S-9, AROCLOR 1254 (5, 10 OR 30%), Method: PREINCUBATION",active; positive
same,mutagenic call,[3],inactive; negative
same,mutagenic call,"Test System: AMES SALMONELLA TYPHIMURIUM, Strain/Indicator: TA1535, Metabolic Activation: RAT, LIVER, S-9, AROCLOR 1254 (10 OR 30%), Method: PREINCUBATION",inactive; negative
CN(N=O)C(C)(C)C,mutagenic call,"Test System: CHINESE HAMSTER V-79, Strain/Indicator: V-79/OUABAIN, Metabolic Activation: HAMSTER, HEPATOCYTES, Method: CELL-MEDIATED",inactive; negative
Cc1cccc(N)c1N,mutagenic call,"Test System: AMES SALMONELLA TYPHIMURIUM, Strain/Indicator: TA98, Metabolic Activation: RAT, LIVER, MICROSOMES, AROCLOR 1254, Method: PREINCUBATION",active; positive
same,mutagenic call,"Test System: AMES SALMONELLA TYPHIMURIUM, Strain/Indicator: TA98, Metabolic Activation: RAT, LIVER, MICROSOMES, DIAMINOTOLUENE, Method: PREINCUBATION",active; positive
same,mutagenic call,"Test System: AMES SALMONELLA TYPHIMURIUM, Strain/Indicator: TA98, Metabolic Activation: RAT, LIVER, MICROSOMES, Method: PREINCUBATION",active; positive
